Laboratory results from paper PMC11676775, “Novel Copper(II) Coordination Compounds Containing Pyridine Derivatives of N^4-Methoxyphenyl-Thiosemicarbazones with Selective Anticancer Activity” (Molecules, 2024).
Like-named read-outs stand apart in the source and are kept apart here.

How the values were obtained:
MDCK normal cell line = test: Cell proliferation resazurin assay, MDCK normal cell line; assay type: cell-based, canine; conditions: 24 h incubation
Protocol: (§1) The proliferation of HeLa, BxPC-3, RD, and MDCK cells was assessed using resazurin. Triplicate cultures of 1 × 10^4 cells in 100 μL of medium were incubated at 37 °C, 3% CO2, in 96-well plates. Compounds were dissolved in DMSO to form 1 × 10⁻^2 M solutions, then diluted with media and added to wells for a 24 h incubation. Following this, 20 μL of resazurin solution was added and incubated for 4 h. Absorbance was measured at 570 nm and 600 nm.
(§2) Percentage inhibition was calculated as follows:(2) I (%)=100−Abs570 nmsample−Abs600 nmsample /[…]−Abs600 nmcontrol ×100
(§3) The formula accounts for absorbance differences at 570 nm and 600 nm to determine cell viability.
(§4) The half maximal inhibitory concentration (IC50) indicated the effectiveness of the compounds on cell lines, as defined by FDA guidelines as the concentration needed for 50% inhibition in vitro. Toxicity was assessed via the median lethal concentration (LC50), the concentration causing death in 50% of juvenile daphnids, calculated using a dose–response equation via least squares fitting. All data are presented as mean ± standard deviation (SD). Statistical analyses were conducted with specialized software.

HL-60 cancer cell line = test: Antiproliferative activity, HL-60; assay type: cell-based, human
RD cancer cell line = test: Cell proliferation resazurin assay, RD; assay type: cell-based, human; conditions: 24 h incubation
Protocol: as §1, §2, §3, §4

MCF-7 cancer cell line = test: Cell proliferation MTT assay, MCF-7; assay type: cell-based, human
Protocol: (§5) The MTT assay, a colorimetric method, quantifies viable cells to evaluate cytotoxic effects on LNCaP, MCF-7, HepG-2, and K-562 cell lines. It measures the conversion of MTT to insoluble formazan by mitochondrial succinate dehydrogenase in active cells, reflecting cell viability. Compounds were dissolved in saline and DMSO (≤0.1%) and tested at 0.1, 1, and 10 μM concentrations, following Mosmann’s method.
(§6) Suspension cells were centrifuged, and adherent cells were trypsinized then diluted to 5 × 10⁴ cells/mL in RPMI 1640 with 10% fetal bovine serum. Subsequently, 5 × 10^3 cells in 100 μL were plated in 96-well plates and incubated for attachment. After adding compounds, cells were incubated for 24 h at 37 °C and 3% CO2. MTT reagent was introduced, and cells were monitored for formazan presence under a microscope.
(§7) Upon observing purple precipitate, detergent reagent was added, and plates were kept in the dark for 4 h. Absorbance was measured at 540 nm using a BioTek reader (Agilent, Santa Clara, CA, USA). Results, indicating percent inhibition, were calculated using the following formula:(3) I (%)=100−Abs540 nmsample /Abs540 nmcontrol ×100
(§8) IC50 values were determined as a measure of compound efficacy on cancer cell proliferation.

HeLa cancer cell line = test: Cell proliferation resazurin assay, HeLa; assay type: cell-based, human; conditions: 24 h incubation
Protocol: as §1, §2, §3, §4

K-562 cancer cell line = test: Cell proliferation MTT assay, K-562; assay type: cell-based, human
Protocol: as §5, §6, §7, §8

HepG-2 cancer cell line = test: Cell proliferation MTT assay, HepG-2; assay type: cell-based, human
Protocol: as §5, §6, §7, §8

LNCaP cancer cell line = test: Cell proliferation MTT assay, LNCaP; assay type: cell-based, human; conditions: 24 h incubation
Protocol: as §5, §6, §7, §8

BxPC-3 cancer cell line = test: Cell proliferation resazurin assay, BxPC-3; assay type: cell-based, human; conditions: BxPC-3, 24 h incubation
Protocol: as §1, §2, §3, §4

Daphnia magna = test: in vivo; conditions: pH 7
Protocol: Toxicity testing for certain substances was conducted using Daphnia magna, following ISO 6341:2012 guidelines. Daphnia magna were cultured parthenogenetically at the Institute of Zoology and fed Chlorella vulgaris grown aseptically. The algal medium included CaCl2, NaHCO3, KCl, and MgSO4·7H2O, with pH adjusted to 7.0 and O2 ≥ 6.00 mg/L. Juvenile daphnids were cultured in 24-well plates, each holding 10 daphnids in 1000 μL of each compound dilution. The bioassay tested concentrations from 0.1 to 100 μM to determine LC50, using doxorubicin as the positive control and a 0.1% DMSO solution as the negative control. The daphnids were incubated at 22 ± 2 °C with a 16 h/8 h light/dark cycle.
The experiment was conducted in triplicate to ensure accuracy.
as §4

[1] = test system: HeLa, RD, and BxPC-3 cancer cell lines; test: Antiproliferative activity, summary over HeLa, RD and BxPC-3 cell lines; assay type: cell-based; conditions: Homo sapiens; range over the three cancer cell lines; read-out: IC50 range against HeLa, RD, and BxPC-3 cell lines
Protocol: as §1, §2, §3, §4

[2] = Homo sapiens, MCF7, MCF-7, 24 h incubation
[3] = Homo sapiens, K562, K-562, 24 h incubation
[4] = Homo sapiens, HepG2, HepG-2, 24 h incubation
[5] = other: immersion in compound dilution

IC50 (RD cancer cell line) [nM] | IC50 (HeLa cancer cell line) [nM] | IC50 (BxPC-3 cancer cell line) [nM] | IC50 (HL-60 cancer cell line; Homo sapiens) [nM] | IC50 (RD cancer cell line; Homo sapiens) [nM] | IC50 (MCF-7 cancer cell line; [2]) [nM] | IC50 (HeLa cancer cell line; Homo sapiens) [nM] | IC50 (K-562 cancer cell line; [3]) [nM] | IC50 (HepG-2 cancer cell line; [4]) [nM] | IC50 (LNCaP cancer cell line; Homo sapiens) [nM] | IC50 (BxPC-3 cancer cell line; Homo sapiens) [nM] | SMILES | IC50 (MDCK normal cell line) [nM] | IC50 (MDCK normal cell line; Canis lupus familiaris) [nM] | LC50 at 24 h (Daphnia magna; [5]) [nM] | also measured
100 ± 10 | 800 ± 40 | 100 ± 20 |  |  |  |  |  |  |  |  | COc1ccccc1NC(=NN=Cc1ccccn1)[S][Cu][Cl] [C1, [Cu(L^1)Cl]] | 300 ± 20 |  |  | IC50 (HL-60 cancer cell line): 35000 ± 2100 nM; IC50 (MCF-7 cancer cell line; MCF-7, 24 h incubation): 100000 ± 4200 nM; IC50 (K-562 cancer cell line; K-562, 24 h incubation): 64000 ± 1400 nM; IC50 (HepG-2 cancer cell line; HepG-2, 24 h incubation): 68000 ± 4200 nM; IC50 (LNCaP cancer cell line): 45000 ± 2100 nM
100 ± 10 | 800 ± 30 | 100 ± 10 |  |  |  |  |  |  |  |  | COc1ccccc1NC(=NN=Cc1ccccn1)[S][Cu][O][N+](=O)[O-] [C2, [Cu(L^1)NO3]] | 600 ± 30 |  |  | IC50 (HL-60 cancer cell line): 30 ± 1 nM; IC50 (MCF-7 cancer cell line; MCF-7, 24 h incubation): 100 ± 50 nM; IC50 (K-562 cancer cell line; K-562, 24 h incubation): 500 ± 10 nM; IC50 (HepG-2 cancer cell line; HepG-2, 24 h incubation): 400 ± 50 nM; IC50 (LNCaP cancer cell line): 800 ± 30 nM
100 ± 60 | 100 ± 10 | 100 ± 50 |  |  |  |  |  |  |  |  | COc1cccc(NC(=NN=Cc2ccccn2)[S][Cu][O][N+](=O)[O-])c1 [C4, [Cu(L^2)NO3]] | 1300 ± 400 |  |  | 
19700 ± 2400 | 26100 ± 1200 | 9400 ± 1200 |  |  |  |  |  |  |  |  | COc1ccc(NC(=NN=Cc2ccccn2)[S][Cu][Cl])cc1 [C5, [Cu(L^3)Cl]] | 26600 ± 2400 |  |  | 
1200 ± 30 | 1100 ± 50 | 100 ± 40 |  |  |  |  |  |  |  |  | COc1ccc(NC(=NN=Cc2ccccn2)[S][Cu][O][N+](=O)[O-])cc1 [C6, [Cu(L^3)NO3]] | 2100 ± 1500 |  |  | IC50 (HL-60 cancer cell line): 30 ± 6 nM; IC50 (MCF-7 cancer cell line; MCF-7, 24 h incubation): 600 ± 30 nM; IC50 (K-562 cancer cell line; K-562, 24 h incubation): 30 ± 2 nM; IC50 (HepG-2 cancer cell line; HepG-2, 24 h incubation): 600 ± 30 nM; IC50 (LNCaP cancer cell line): 300 ± 40 nM
500 ± 60 | 100 ± 40 | 200 ± 50 |  |  |  |  |  |  |  |  | COc1cccc(NC(=NN=C(C)c2ccccn2)[S][Cu][O][N+](=O)[O-])c1 [C7, [Cu(L^4)NO3]] | 900 ± 40 |  |  | 
200 ± 40 | 100 ± 30 | 100 ± 70 |  |  |  |  |  |  |  |  | COc1cccc(NC(=NN=C(C)c2ccccn2)[S][Cu][Cl])c1 [C8, [Cu(L^4)Cl]] | 1100 ± 60 |  |  | 
4600 ± 600 | 30900 ± 1200 | 11200 ± 1300 |  |  |  |  |  |  |  |  | [NH2][Pt]([NH2])([Cl])[Cl] [CDDP, cisplatin, reference compound] | 1500 ± 300 |  |  | 
 |  |  | 40 ± 6 | 100000 ± 4200 | 10000 ± 1200 | 81200 ± 5300 | 10000 ± 1200 | 800 ± 40 | 100000 ± 4900 | 100 ± 50 | COc1ccccc1NC(=S)N/N=C/c1ccccn1 [HL^1, N-(2-Methoxyphenyl)-2-[(pyridin-2-yl)methylidene] hydrazine-1-carbothioamide] |  | 10100 ± 1200 | 15000 | 
 |  |  | 10 ± 4 | 200 ± 30 | 3500 ± 500 | 100 ± 10 | 900 ± 50 | 600 ± 60 | 900 ± 50 | 100 ± 40 | COc1cccc(NC(=S)N/N=C/c2ccccn2)c1 [HL^2, N-(3-Methoxyphenyl)-2-[(pyridin-2-yl)methylidene] hydrazine-1-carbothioamide] |  | 400 ± 60 | 13000 | IC50 [1]: 100 to 200 nM
 |  |  | 10 ± 1 | 500 ± 40 | 100000 ± 4600 | 100000 ± 5900 | 10000 ± 1600 | 52000 ± 10 | 100000 ± 4200 | 2100 ± 200 | COc1ccc(NC(=S)N/N=C/c2ccccn2)cc1 [HL^3, N-(4-Methoxyphenyl)-2-[(pyridin-2-yl)methylidene] hydrazine-1-carbothioamide] |  | 100000 ± 4600 | 35000 | IC50 [1]: 500 to 100000 nM
 |  |  | 60 ± 4 | 11600 ± 500 | 55000 ± 2100 | 5800 ± 1200 | 16000 ± 2200 | 3100 ± 300 | 100000 ± 3100 | 100 ± 30 | COc1cccc(NC(=S)N/N=C(\C)c2ccccn2)c1 [HL^4, N-(3-Methoxyphenyl)-2-[1-(pyridin-2-yl)ethylidene] hydrazine-1-carbothioamide] |  | 14900 ± 1600 | 14000 | IC50 [1]: 100 to 11000 nM
 |  |  | 20 ± 6 | 500 ± 60 | 5200 ± 600 | 100000 ± 4200 | 100 ± 10 | 300 ± 10 | 8100 ± 1200 | 3200 ± 300 | COc1cccc(NC(=S)N/N=C(/c2ccccc2)c2ccccn2)c1 [HL^5, N-(3-Methoxyphenyl)-2-[phenyl (pyridin-2-yl)methylidene] hydrazine-1-carbothioamide] |  | 100000 ± 3800 | 45000 | IC50 [1]: 500 to 100000 nM

SMILES | IC50 (RD cancer cell line) [nM] | IC50 (HeLa cancer cell line) [nM] | IC50 (BxPC-3 cancer cell line) [nM] | IC50 (HL-60 cancer cell line; Homo sapiens) [nM] | IC50 (RD cancer cell line; Homo sapiens) [nM] | IC50 (MCF-7 cancer cell line; [2]) [nM] | IC50 (HeLa cancer cell line; Homo sapiens) [nM] | IC50 (K-562 cancer cell line; [3]) [nM] | IC50 (HepG-2 cancer cell line; [4]) [nM] | IC50 (LNCaP cancer cell line; Homo sapiens) [nM] | IC50 (BxPC-3 cancer cell line; Homo sapiens) [nM] | IC50 (MDCK normal cell line) [nM] | IC50 (MDCK normal cell line; Canis lupus familiaris) [nM] | LC50 at 24 h (Daphnia magna; [5]) [nM] | also measured
COc1cccc2c1C(=O)c1c(O)c3c(c(O)c1C2=O)C[C@@](O)(C(=O)CO)C[C@@H]3O[C@H]1C[C@H](N)[C@H](O)[C@H](C)O1 [DOXO, doxorubicin, reference compound] |  |  |  | 1000 ± 300 | 16200 ± 1400 | 14000 ± 1500 | 6200 ± 500 | 400 ± 30 | 2800 ± 1100 | 1100 ± 20 | 6000 ± 100 |  | 10800 ± 1200 |  | LC50 at 24 h (Daphnia magna): 3600 nM
